Ki data for 17 compounds are collected here from BindingDB's records for doi:10.1021/jm800940u (Schering-Plough Research Institute, 2009).

Sequence of Genome polyprotein (P27958 1027-1657 limits assumed): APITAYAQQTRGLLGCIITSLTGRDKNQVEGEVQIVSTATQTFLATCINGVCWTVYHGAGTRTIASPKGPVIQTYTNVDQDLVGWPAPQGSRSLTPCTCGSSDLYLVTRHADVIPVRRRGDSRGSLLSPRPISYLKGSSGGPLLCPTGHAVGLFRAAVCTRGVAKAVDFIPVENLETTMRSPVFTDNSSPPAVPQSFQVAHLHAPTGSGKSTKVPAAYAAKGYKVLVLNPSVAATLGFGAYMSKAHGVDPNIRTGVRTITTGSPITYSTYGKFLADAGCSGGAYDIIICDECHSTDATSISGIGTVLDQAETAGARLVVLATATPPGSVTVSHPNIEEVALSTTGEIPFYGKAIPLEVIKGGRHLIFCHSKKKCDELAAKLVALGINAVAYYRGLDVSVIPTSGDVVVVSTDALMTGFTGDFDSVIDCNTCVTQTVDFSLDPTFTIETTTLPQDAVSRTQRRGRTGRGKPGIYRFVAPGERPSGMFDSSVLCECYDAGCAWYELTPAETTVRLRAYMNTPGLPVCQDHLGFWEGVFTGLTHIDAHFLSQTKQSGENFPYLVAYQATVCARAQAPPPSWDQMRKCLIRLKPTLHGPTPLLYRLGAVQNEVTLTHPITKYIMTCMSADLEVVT

The target in the assay is Genome polyprotein (Hepatitis C virus genotype 1a (isolate H77), UniProt P27958). The experiment in a line: Continuous Spectrophotometric Assay. As to conditions: pH 6.5; 30 °C. On the procedure:
Proteolytic cleavage of the ester linkage between the Nva (L-norvaline) and the chromophore (PAP) was monitored for change in absorbance at 370 nm. Initial velocities were determined using linear regression and kinetic constants were obtained by fitting the data to the Michaelis-Menten equation.
`CCCNC(=O)C(=O)[C@@H]1CCCCCCCCC[C@H](NC(=O)N[C@H](CN(C)S(=O)(=O)c2cccs2)C(C)(C)C)C(=O)N2C[C@H]3[C@@H]([C@H]2C(=O)N1)C3(C)C` [2-[(3S,13S,16S,17R,19S)-3-({[(2S)-3,3-dimethyl-1-[methyl(thiophene-2-)sulfonamido]butan-2-yl]carbamoyl}amino)-18,18-dimethyl-2,15-dioxo-1,14-diazatricyclo[14.4.0.0^{17,19}]icosan-13-yl]-2-oxo-N-propylacetamide] displayed a Ki of 14 nM.

The compound `CN(C[C@@H](NC(=O)N[C@H]1CCCCCCCCC[C@@H](C(=O)C(N)=O)NC(=O)[C@@H]2[C@@H]3[C@H](CN2C1=O)C3(C)C)C(C)(C)C)S(=O)(=O)c1cccs1` [2-[(3S,13S,16S,17R,19S)-3-({[(2S)-3,3-dimethyl-1-[methyl(thiophene-2-)sulfonamido]butan-2-yl]carbamoyl}amino)-18,18-dimethyl-2,15-dioxo-1,14-diazatricyclo[14.4.0.0^{17,19}]icosan-13-yl]-2-oxoacetamide] returned an inhibitory constant (Ki) of 2 nM.

As to `CCNC(=O)C(=O)[C@@H]1CCCCCCCCC[C@H](NC(=O)N[C@H](CN(C)S(=O)(=O)c2cccs2)C(C)(C)C)C(=O)N2C[C@H]3[C@@H]([C@H]2C(=O)N1)C3(C)C` [2-[(3S,13S,16S,17R,19S)-3-({[(2S)-3,3-dimethyl-1-[methyl(thiophene-2-)sulfonamido]butan-2-yl]carbamoyl}amino)-18,18-dimethyl-2,15-dioxo-1,14-diazatricyclo[14.4.0.0^{17,19}]icosan-13-yl]-N-ethyl-2-oxoacetamide], affinity was put at a Ki of 10 nM.

With `CC(C)(C)NC(=O)N[C@H]1CCCCCCCCCC[C@@H](C(=O)C(N)=O)NC(=O)[C@@H]2[C@@H]3[C@H](CN2C1=O)C3(C)C` [2-[(3S,14S,17S,18R,20S)-3-[(tert-butylcarbamoyl)amino]-19,19-dimethyl-2,16-dioxo-1,15-diazatricyclo[15.4.0.0^{18,20}]henicosan-14-yl]-2-oxoacetamide], affinity was put at a Ki of 59 nM. This Ki is about 5.9-fold higher than that of the compound before.

On to `CN(C)C(=O)[C@@H](NC(=O)CNC(=O)C(=O)[C@@H]1CCCCCCCCCC[C@H](NC(=O)NC(C)(C)C)C(=O)N2C[C@H]3[C@@H]([C@H]2C(=O)N1)C3(C)C)c1ccccc1` [2-[(3S,14S,17S,18R,20S)-3-[(tert-butylcarbamoyl)amino]-19,19-dimethyl-2,16-dioxo-1,15-diazatricyclo[15.4.0.0^{18,20}]henicosan-14-yl]-N-({[(S)-(dimethylcarbamoyl)(phenyl)methyl]carbamoyl}methyl)-2-oxoacetamide], for which the affinity corresponds to a Ki of 6 nM.

Take `CC1(NC(=O)N[C@H]2CCCCCCCCCC[C@@H](C(=O)C(N)=O)NC(=O)[C@@H]3[C@@H]4[C@H](CN3C2=O)C4(C)C)CCCCC1` [2-[(3S,14S,17S,18R,20S)-19,19-dimethyl-3-{[(1-methylcyclohexyl)carbamoyl]amino}-2,16-dioxo-1,15-diazatricyclo[15.4.0.0^{18,20}]henicosan-14-yl]-2-oxoacetamide]: the affinity, expressed as Ki, was 36 nM.

Turning to `CN(C[C@@H](NC(=O)N[C@H]1CCCCCCCCC[C@@H](C(=O)C(=O)NCC2CC2)NC(=O)[C@@H]2[C@@H]3[C@H](CN2C1=O)C3(C)C)C(C)(C)C)S(=O)(=O)c1cccs1` [N-(cyclopropylmethyl)-2-[(3S,13S,16S,17R,19S)-3-({[(2S)-3,3-dimethyl-1-[methyl(thiophene-2-)sulfonamido]butan-2-yl]carbamoyl}amino)-18,18-dimethyl-2,15-dioxo-1,14-diazatricyclo[14.4.0.0^{17,19}]icosan-13-yl]-2-oxoacetamide], the affinity corresponds to a Ki of 21 nM.

For `CC(C)(C)OC(=O)[C@@H](NC(=O)N[C@H]1CCCCCCCCCC[C@@H](C(=O)C(N)=O)NC(=O)[C@@H]2[C@@H]3[C@H](CN2C1=O)C3(C)C)C(C)(C)C` [tert-butyl (2S)-2-({[(3S,14S,17S,18R,20S)-14-(carbamoylcarbonyl)-19,19-dimethyl-2,16-dioxo-1,15-diazatricyclo[15.4.0.0^{18,20}]henicosan-3-yl]carbamoyl}amino)-3,3-dimethylbutanoate], the Ki came out at 37 nM. Against the preceding compound, the Ki is about 1.8-fold higher.

As to `C=CCCCC[C@H](NC(=O)[C@@H]1[C@@H]2[C@H](CN1C(=O)[C@H](CCCCC=C)NC(=O)OC(C)(C)C)C2(C)C)C(=O)C(N)=O` [tert-butyl N-[(2S)-1-[(1R,2S,5S)-2-{[(2S)-1-carbamoyl-1-oxooct-7-en-2-yl]carbamoyl}-6,6-dimethyl-3-azabicyclo[3.1.0]hexan-3-yl]-1-oxooct-7-en-2-yl]carbamate], the Ki turned out to be 250 nM.

For the compound `CN(C)C(=O)[C@@H](NC(=O)CNC(=O)C(=O)[C@@H]1CCCC/C=C/CCCC[C@H](NC(=O)OC(C)(C)C)C(=O)N2C[C@H]3[C@@H]([C@H]2C(=O)N1)C3(C)C)c1ccccc1` [tert-butyl N-[(3S,8E,14S,17S,18R,20S)-14-{[({[(S)-(dimethylcarbamoyl)(phenyl)methyl]carbamoyl}methyl)carbamoyl]carbonyl}-19,19-dimethyl-2,16-dioxo-1,15-diazatricyclo[15.4.0.0^{18,20}]henicos-8-en-3-yl]carbamate], the affinity, expressed as Ki, was 5 nM.

`CC(C)(C)OC(=O)N[C@H]1CCCCCCC[C@@H](C(=O)C(N)=O)NC(=O)[C@@H]2[C@@H]3[C@H](CN2C1=O)C3(C)C` [tert-butyl N-[(3S,11S,14S,15R,17S)-11-(carbamoylcarbonyl)-16,16-dimethyl-2,13-dioxo-1,12-diazatricyclo[12.4.0.0^{15,17}]octadecan-3-yl]carbamate] showed a Ki of 210 nM.

With `CC(C)(C)OC(=O)N[C@H]1CCCCCCCC[C@@H](C(=O)C(N)=O)NC(=O)[C@@H]2[C@@H]3[C@H](CN2C1=O)C3(C)C` [tert-butyl N-[(3S,12S,15S,16R,18S)-12-(carbamoylcarbonyl)-17,17-dimethyl-2,14-dioxo-1,13-diazatricyclo[13.4.0.0^{16,18}]nonadecan-3-yl]carbamate], the affinity, expressed as Ki, was 36 nM.

Turning to `CC(C)(C)OC(=O)N[C@H]1CCCCCCCCC[C@@H](C(=O)C(N)=O)NC(=O)[C@@H]2[C@@H]3[C@H](CN2C1=O)C3(C)C` [tert-butyl N-[(3S,13S,16S,17R,19S)-13-(carbamoylcarbonyl)-18,18-dimethyl-2,15-dioxo-1,14-diazatricyclo[14.4.0.0^{17,19}]icosan-3-yl]carbamate], the inhibition constant (Ki) was 30 nM.

Regarding `CC(C)(C)OC(=O)N[C@H]1CCCCCCCCCC[C@@H](C(=O)C(N)=O)NC(=O)[C@@H]2[C@@H]3[C@H](CN2C1=O)C3(C)C` [tert-butyl N-[(3S,14S,17S,18R,20S)-14-(carbamoylcarbonyl)-19,19-dimethyl-2,16-dioxo-1,15-diazatricyclo[15.4.0.0^{18,20}]henicosan-3-yl]carbamate], the affinity corresponds to a Ki of 59 nM.

Regarding `CC(C)(C)OC(=O)N[C@H]1CCCCCCCCCC[C@@H](C(=O)C(=O)NCC(=O)NCc2ccccc2)NC(=O)[C@@H]2[C@@H]3[C@H](CN2C1=O)C3(C)C` [tert-butyl N-[(3S,14S,17S,18R,20S)-14-({[(benzylcarbamoyl)methyl]carbamoyl}carbonyl)-19,19-dimethyl-2,16-dioxo-1,15-diazatricyclo[15.4.0.0^{18,20}]henicosan-3-yl]carbamate], the affinity, expressed as Ki, was 89 nM.

On to `CC(C)(C)NC(=O)C(=O)[C@@H]1CCCCCCCCCC[C@H](NC(=O)OC(C)(C)C)C(=O)N2C[C@H]3[C@@H]([C@H]2C(=O)N1)C3(C)C` [tert-butyl N-[(3S,14S,17S,18R,20S)-14-[(tert-butylcarbamoyl)carbonyl]-19,19-dimethyl-2,16-dioxo-1,15-diazatricyclo[15.4.0.0^{18,20}]henicosan-3-yl]carbamate], for which the affinity corresponds to a Ki of 6000 nM.

As to `CN(C)C(=O)[C@@H](NC(=O)CNC(=O)C(=O)[C@@H]1CCCCCCCCCC[C@H](NC(=O)OC(C)(C)C)C(=O)N2C[C@H]3[C@@H]([C@H]2C(=O)N1)C3(C)C)c1ccccc1` [tert-butyl N-[(3S,14S,17S,18R,20S)-14-{[({[(S)-(dimethylcarbamoyl)(phenyl)methyl]carbamoyl}methyl)carbamoyl]carbonyl}-19,19-dimethyl-2,16-dioxo-1,15-diazatricyclo[15.4.0.0^{18,20}]henicosan-3-yl]carbamate], the Ki amounted to 6 nM.
